The text below walks through data of patent US5399340A, “Use of amide complex compounds” (Schering Aktiengesellschaft, priority 1989, dated 1995).

Data set [1] can be described thus: T1 relaxation in water. In kind it is physicochemical.
Data set [2] can be described thus: T1 relaxation in plasma. In kind it is physicochemical.
The conditions of data set [3]: cited from earlier work.

For `C[NH2+]C[C@H](O)[C@@H](O)[C@H](O)[C@H](O)CO.O=C([O-])CN(CCN(CC(=O)[O-])CC(=O)[O-])CCN(CC(=O)[O-])CC(=O)Nc1ccccc1.[Gd+3]` [Example 2, N-Methylglucamine Salt of the Gadolinium Complex of 3,6,9-Tris(carboxymethyl)-3,6,9-triazaundecanedioic Acid Phenyl Monoamide], the T1 relaxation in data set [1] was 3.79 ± 0.16 mmol⁻¹ s⁻¹; in data set [2] it was 5.45 ± 0.68 mmol⁻¹ s⁻¹.

As to `CNC[C@H](O)[C@@H](O)[C@H](O)[C@H](O)CO.CNC[C@H](O)[C@@H](O)[C@H](O)[C@H](O)CO.O=C([O-])CN(CCN(CC(=O)[O-])CC(=O)O)CCN(CC(=O)[O-])CC(=O)O.[Gd+3]` [MAGNEVIST], in data set [3] (intravenous injection), the distribution entry is on record as “extra-cellular”; the “passage of intact cell membranes and extrarenal excretion” value was “practically not at all observed”; the route of excretion result was “excreted via the kidneys by glomerular secretion”. In addition, in data set [3] (patients with limited kidney function), the “rate of excretion in renal insufficiency” value was “excreted only very slowly”.
